Laboratory results: US12077503B2, “Substituted cyclic amides and their use as herbicides” (FMC CORPORATION, priority 2015, dated 2024)

Key:
Type in all cases: in vivo
[1] = tested on: giant foxtail (Setaria faberii); experiment: Test A preemergence; conditions: Setaria faberi, pre-emergence, 240 h, read-out: Plant response rating, Foxtail, Giant
How it was run: (§1)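 Ratings of 0 (no effect) to 100 (complete control) come from visual comparison with untreated controls roughly 10 d after treatment. Test chemicals, formulated in a non-phytotoxic solvent mixture with surfactant, were applied either as a preemergence directed soil spray on seeded soil or postemergence to one- to two-leaf plants 2 to 10 cm tall.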

[2] = tested on: ryegrass, Italian (Italian ryegrass, Lolium multiflorum); experiment: Test A preemergence; conditions: Lolium multiflorum, pre-emergence, 240 h, read-out: Plant response rating, Ryegrass, Italian
How it was run: as §1

[3] = tested on: barnyardgrass (Echinochloa crus-galli); experiment: Test A preemergence; conditions: Echinochloa crus-galli, pre-emergence, 240 h, read-out: Plant response rating, Barnyardgrass
How it was run: as §1

[4] = tested on: ragweed (common ragweed, Ambrosia elatior); experiment: Test A preemergence; conditions: Ambrosia artemisiifolia, pre-emergence, 240 h, read-out: Plant response rating, Ragweed
How it was run: as §1

Kochia (Kochia scoparia) [5] = experiment: Test A preemergence; conditions: Bassia scoparia, pre-emergence, 240 h, read-out: Plant response rating, Kochia
How it was run: as §1

[6] = tested on: pigweed (Amaranthus retroflexus); experiment: Test A preemergence; conditions: Amaranthus retroflexus, pre-emergence, 240 h, read-out: Plant response rating, Pigweed
[7] = tested on: giant foxtail (Setaria faberii); experiment: Test A postemergence; conditions: Setaria faberi, post-emergence, 240 h
How it was run: as §1

[8] = tested on: blackgrass (Alopecurus myosuroides); experiment: Test A postemergence; conditions: Alopecurus myosuroides, post-emergence, 240 h
How it was run: as §1

[9] = tested on: wheat (Triticum aestivum); experiment: Test A postemergence; conditions: Triticum aestivum, post-emergence, 240 h
How it was run: as §1

corn (Zea mays) = experiment: Test A postemergence; conditions: Zea mays, post-emergence, 240 h
How it was run: as §1

[10] = tested on: barnyardgrass (Echinochloa crus-galli); experiment: Test A postemergence; conditions: Echinochloa crus-galli, post-emergence, 240 h
How it was run: as §1

[11] = tested on: ragweed (common ragweed, Ambrosia elatior); experiment: Test A postemergence; conditions: Ambrosia artemisiifolia, post-emergence, 240 h
How it was run: as §1

Kochia (Kochia scoparia) [12] = experiment: Test A postemergence; conditions: Bassia scoparia, post-emergence, 240 h
How it was run: as §1

[13] = tested on: Galium (catchweed bedstraw, Galium aparine); experiment: Test A postemergence; conditions: Galium, post-emergence, 240 h
How it was run: as §1

[14] = tested on: pigweed (Amaranthus retroflexus); experiment: Test A postemergence; conditions: Amaranthus retroflexus, post-emergence, 240 h
How it was run: as §1

[15] = 125 g ai/ha, preemergence, visual rating after approx. 10 d, 0 to 100 scale where 0 is no effect and 100 is complete control
[16] = Preemergence, 31 g ai/ha, 0 to 100 scale (0 no effect, 100 complete control)

Compound Cc1cc(F)cc([C@H]2CN(C)C(=O)[C@@H]2C(=O)Nc2cccc(F)c2C)c1 [Compound 802] has a pest or weed control at 125 g/ha [1, 15] of 90%, a pest or weed control at 31 g/ha [1, 16] of 90% and a pest or weed control at 125 g/ha [2, 15] of 40%. For the same compound, the pest or weed control at 31 g/ha [2, 16] was 0%, the pest or weed control at 125 g/ha [3, 15] was 90% and the pest or weed control at 31 g/ha [3, 16] was 80%. The pest or weed control at 125 g/ha [4, 15] was 60%, the pest or weed control at 31 g/ha [4, 16] was 0% and the pest or weed control at 125 g/ha (Kochia (Kochia scoparia) [5]; [15]) was 50%. The pest or weed control at 31 g/ha (Kochia (Kochia scoparia) [5]; [16]) was 0%, the pest or weed control at 125 g/ha [6, 15] was 50% and the pest or weed control at 31 g/ha [6, 16] was 40%. The pest or weed control at 125 g/ha ([7]; 125 g ai/ha, postemergence, visual injury rating after approximately 10 d, read-out: Foxtail, Giant plant response rating (0 to 100 scale, 0 no effect, 100 complete control)) was 90%, the pest or weed control at 31 g/ha ([7]; Postemergence, 31 g ai/ha, visual injury after approx. 10 d, 0 to 100 scale, 0 no effect, 100 complete control, read-out: Plant response rating, Foxtail, Giant) was 70% and the pest or weed control at 125 g/ha ([8]; 125 g ai/ha, postemergence, visual injury rating after approximately 10 d, read-out: Blackgrass plant response rating (0 to 100 scale, 0 no effect, 100 complete control)) was 60%. The pest or weed control at 31 g/ha ([8]; Postemergence, 31 g ai/ha, visual injury after approx. 10 d, 0 to 100 scale, 0 no effect, 100 complete control, read-out: Plant response rating, Blackgrass) was 20%, the plant injury at 125 g/ha ([9]; 125 g ai/ha, postemergence, visual injury rating after approximately 10 d, read-out: Wheat plant response rating (0 to 100 scale, 0 no effect, 100 complete control)) was 30% and the plant injury at 31 g/ha ([9]; Postemergence, 31 g ai/ha, visual injury after approx. 10 d, 0 to 100 scale, 0 no effect, 100 complete control, read-out: Plant response rating, Wheat) was 0%. The plant injury at 125 g/ha (corn (Zea mays); 125 g ai/ha, postemergence, visual injury rating after approximately 10 d, read-out: Corn plant response rating (0 to 100 scale, 0 no effect, 100 complete control)) was 70%, the Corn plant response rating (crop injury, 0 = no effect, 100 = complete kill) at 31 g/ha (corn (Zea mays); Postemergence, 31 g ai/ha, visual injury after approx. 10 d, 0 to 100 scale, 0 no effect, 100 complete control) was 20% and the pest or weed control at 125 g/ha ([10]; 125 g ai/ha, postemergence, visual injury rating after approximately 10 d, read-out: Barnyardgrass plant response rating (0 to 100 scale, 0 no effect, 100 complete control)) was 80%. The pest or weed control at 31 g/ha ([10]; Postemergence, 31 g ai/ha, visual injury after approx. 10 d, 0 to 100 scale, 0 no effect, 100 complete control, read-out: Plant response rating, Barnyardgrass) was 80%, the pest or weed control at 125 g/ha ([11]; 125 g ai/ha, postemergence, visual injury rating after approximately 10 d, read-out: Ragweed plant response rating (0 to 100 scale, 0 no effect, 100 complete control)) was 30% and the pest or weed control at 31 g/ha ([11]; Postemergence, 31 g ai/ha, visual injury after approx. 10 d, 0 to 100 scale, 0 no effect, 100 complete control, read-out: Plant response rating, Ragweed) was 0%. It also gave a pest or weed control at 125 g/ha (Kochia (Kochia scoparia) [12]; 125 g ai/ha, postemergence, visual injury rating after approximately 10 d, read-out: Kochia plant response rating (0 to 100 scale, 0 no effect, 100 complete control)) of 40%, a pest or weed control at 31 g/ha (Kochia (Kochia scoparia) [12]; Postemergence, 31 g ai/ha, visual injury after approx. 10 d, 0 to 100 scale, 0 no effect, 100 complete control, read-out: Plant response rating, Kochia) of 20% and a pest or weed control at 125 g/ha ([13]; 125 g ai/ha, postemergence, visual injury rating after approximately 10 d, read-out: Galium plant response rating (0 to 100 scale, 0 no effect, 100 complete control)) of 60%. The pest or weed control at 31 g/ha ([13]; Postemergence, 31 g ai/ha, visual injury after approx. 10 d, 0 to 100 scale, 0 no effect, 100 complete control, read-out: Plant response rating, Galium) was 0%, the pest or weed control at 125 g/ha ([14]; 125 g ai/ha, postemergence, visual injury rating after approximately 10 d, read-out: Pigweed plant response rating (0 to 100 scale, 0 no effect, 100 complete control)) was 40% and the pest or weed control at 31 g/ha ([14]; Postemergence, 31 g ai/ha, visual injury after approx. 10 d, 0 to 100 scale, 0 no effect, 100 complete control, read-out: Plant response rating, Pigweed) was 30%.
